Tests used:
Histone deacetylase 1 = Histone deacetylase 1 (Homo sapiens, UniProt Q13547); test: Inhibition of HDAC1 (unknown origin)
Histone deacetylase 2 = Histone deacetylase 2 (Homo sapiens, UniProt Q92769); test: Inhibition of HDAC2 (unknown origin)
[1] = Inhibition of PI3K (unknown origin); design: species or system Homo sapiens
Histone deacetylase 3 = Histone deacetylase 3 (Homo sapiens, UniProt O15379); test: Inhibition of HDAC3 (unknown origin)
[2] = target: Polyamine deacetylase HDAC10 (Homo sapiens, UniProt Q969S8); test: Inhibition of HDAC10 (unknown origin)
Histone deacetylase 11 = Histone deacetylase 11 (Homo sapiens, UniProt Q96DB2); test: Inhibition of HDAC11 (unknown origin)
Daudi = test: Cytotoxicity against human Daudi cells assessed as inhibition of cell growth measured after 72 hrs by CellTiter-Glo luminescent viability assay; assay type: functional, cell-based
NCI-H2122 = test: Cytotoxicity against human NCI-H2122 cells assessed as inhibition of cell growth measured after 72 hrs by CellTiter-Glo luminescent viability assay; assay type: functional, cell-based; settings: NCI-H2122, 72 h
HCT-116 = test: Cytotoxicity against human HCT-116 cells assessed as inhibition of cell growth measured after 72 hrs by CellTiter-Glo luminescent viability assay; assay type: functional, cell-based; settings: HCT-116, 72 h
TMD8 = test: Cytotoxicity against human TMD8 cells assessed as inhibition of cell growth measured after 72 hrs by CellTiter-Glo luminescent viability assay; assay type: functional, cell-based; settings: TMD8, 72 h
Ramos = test: Cytotoxicity against human Ramos cells assessed as inhibition of cell growth measured after 72 hrs by CellTiter-Glo luminescent viability assay; assay type: functional, cell-based
K562 [3] = test: Cytotoxicity against human K562 cells assessed as inhibition of cell growth measured after 72 hrs by CellTiter-Glo luminescent viability assay; assay type: functional, cell-based; settings: K562, 72 h
THP-1 = test: Cytotoxicity against human THP-1 cells assessed as inhibition of cell growth measured after 72 hrs by CellTiter-Glo luminescent viability assay; assay type: functional, cell-based; settings: THP-1, 72 h
U-937 = test: Cytotoxicity against human U-937 cells assessed as inhibition of cell growth measured after 72 hrs by CellTiter-Glo luminescent viability assay; assay type: functional, cell-based; settings: U-937, 72 h
Calu-6 = test: Cytotoxicity against human Calu-6 cells assessed as inhibition of cell growth measured after 72 hrs by CellTiter-Glo luminescent viability assay; assay type: functional, cell-based; settings: Calu-6, 72 h
NCI-H460 = test: Cytotoxicity against human NCI-H460 cells assessed as inhibition of cell growth measured after 72 hrs by CellTiter-Glo luminescent viability assay; assay type: functional, cell-based; settings: NCI-H460, 72 h
PC-9 = test: Cytotoxicity against human PC-9 cells assessed as inhibition of cell growth measured after 72 hrs by CellTiter-Glo luminescent viability assay; assay type: functional, cell-based; settings: PC-9, 72 h
NCI-H1975 = test: Cytotoxicity against human NCI-H1975 cells assessed as inhibition of cell growth measured after 72 hrs by CellTiter-Glo luminescent viability assay; assay type: functional, cell-based; settings: NCI-H1975, 72 h
NCI-H358 = test: Cytotoxicity against human NCI-H358 cells assessed as inhibition of cell growth measured after 72 hrs by CellTiter-Glo luminescent viability assay; assay type: functional, cell-based; settings: NCI-H358, 72 h
COLO 205 = test: Cytotoxicity against human COLO 205 cells assessed as inhibition of cell growth measured after 72 hrs by CellTiter-Glo luminescent viability assay; assay type: functional, cell-based; settings: COLO 205, 72 h
SW-620 = test: Cytotoxicity against human SW620 cells assessed as inhibition of cell growth measured after 72 hrs by CellTiter-Glo luminescent viability assay; assay type: functional, cell-based; settings: SW-620, 72 h
LoVo = test: Cytotoxicity against human LoVo cells assessed as inhibition of cell growth measured after 72 hrs by CellTiter-Glo luminescent viability assay; assay type: functional, cell-based
SW480 = test: Cytotoxicity against human SW480 cells assessed as inhibition of cell growth measured after 72 hrs by CellTiter-Glo luminescent viability assay; assay type: functional, cell-based; settings: SW480, 72 h
MC-38 = test: Cytotoxicity against mouse MC38 cells assessed as inhibition of cell growth measured after 72 hrs by CellTiter-Glo luminescent viability assay; assay type: functional, cell-based; settings: MC-38, 72 h
[4] = Cmax in tumor of female SCID mouse xenografted with human Daudi cells at 25 to 100 mg/kg, iv measured upto 24 hrs by LC-MS/MS analysis; assay type: ADME, organism-based, Neoplasm; settings: dose 25-100 mg/kg
[5] = AUC in tumor of female SCID mouse xenografted with human Daudi cells at 25 to 100 mg/kg, iv measured upto 24 hrs by LC-MS/MS analysis; assay type: ADME, organism-based, Neoplasm; settings: in vivo, dose 25-100 mg/kg
[6] = Half life in tumor of female SCID mouse xenografted with human Daudi cells at 25 to 100 mg/kg, iv measured upto 24 hrs by LC-MS/MS analysis; assay type: ADME, organism-based, Neoplasm; settings: dose 25-100 mg/kg
K562 [7] = test: Antiproliferative activity against human K562 cells measured after 72 hrs by CCK-8 assay; assay type: functional, cell-based; settings: K562, 72 h
U-266 = test: Antiproliferative activity against human U-266 cells measured after 72 hrs by CCK-8 assay; assay type: functional, cell-based; settings: U-266, 72 h, pooled result: one value given for 9 cell lines, strains, targets or settings

Histone deacetylase 1, sequence (Q13547 whole entry): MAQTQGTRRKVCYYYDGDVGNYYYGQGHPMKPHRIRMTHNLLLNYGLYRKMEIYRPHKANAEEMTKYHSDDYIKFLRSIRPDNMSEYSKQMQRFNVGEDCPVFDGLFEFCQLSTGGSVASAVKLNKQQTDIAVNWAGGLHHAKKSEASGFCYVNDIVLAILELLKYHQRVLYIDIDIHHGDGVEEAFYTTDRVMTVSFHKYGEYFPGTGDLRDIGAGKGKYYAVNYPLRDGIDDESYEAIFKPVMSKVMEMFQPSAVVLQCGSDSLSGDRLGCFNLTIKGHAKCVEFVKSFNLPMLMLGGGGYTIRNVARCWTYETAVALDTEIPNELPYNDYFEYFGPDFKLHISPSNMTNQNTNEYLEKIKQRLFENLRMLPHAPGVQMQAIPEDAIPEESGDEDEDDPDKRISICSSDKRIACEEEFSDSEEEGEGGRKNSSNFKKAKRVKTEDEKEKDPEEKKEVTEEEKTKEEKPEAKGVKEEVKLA
Histone deacetylase 3, sequence (O15379 whole entry): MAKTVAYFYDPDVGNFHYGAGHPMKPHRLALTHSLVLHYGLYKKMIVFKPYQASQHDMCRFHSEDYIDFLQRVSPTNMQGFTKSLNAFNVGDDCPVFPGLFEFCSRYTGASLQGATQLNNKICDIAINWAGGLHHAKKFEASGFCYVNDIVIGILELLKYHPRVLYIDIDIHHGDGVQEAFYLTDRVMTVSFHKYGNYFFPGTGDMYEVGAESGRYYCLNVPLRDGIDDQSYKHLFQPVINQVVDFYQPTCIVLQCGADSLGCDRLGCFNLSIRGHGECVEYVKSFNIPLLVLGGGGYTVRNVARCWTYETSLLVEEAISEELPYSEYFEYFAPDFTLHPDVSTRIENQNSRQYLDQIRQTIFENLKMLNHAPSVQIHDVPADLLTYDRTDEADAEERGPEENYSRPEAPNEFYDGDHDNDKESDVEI
Histone deacetylase 11, sequence (Q96DB2 whole entry): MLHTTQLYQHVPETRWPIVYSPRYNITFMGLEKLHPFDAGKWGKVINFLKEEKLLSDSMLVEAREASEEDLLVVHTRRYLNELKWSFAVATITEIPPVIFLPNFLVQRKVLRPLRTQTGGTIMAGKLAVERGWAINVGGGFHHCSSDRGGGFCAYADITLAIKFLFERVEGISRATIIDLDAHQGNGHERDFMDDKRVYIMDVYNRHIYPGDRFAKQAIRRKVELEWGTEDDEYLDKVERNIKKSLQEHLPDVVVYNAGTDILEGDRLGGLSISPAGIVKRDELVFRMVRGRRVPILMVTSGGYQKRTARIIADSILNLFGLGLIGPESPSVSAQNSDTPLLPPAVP
Polyamine deacetylase HDAC10, sequence (Q969S8 whole entry): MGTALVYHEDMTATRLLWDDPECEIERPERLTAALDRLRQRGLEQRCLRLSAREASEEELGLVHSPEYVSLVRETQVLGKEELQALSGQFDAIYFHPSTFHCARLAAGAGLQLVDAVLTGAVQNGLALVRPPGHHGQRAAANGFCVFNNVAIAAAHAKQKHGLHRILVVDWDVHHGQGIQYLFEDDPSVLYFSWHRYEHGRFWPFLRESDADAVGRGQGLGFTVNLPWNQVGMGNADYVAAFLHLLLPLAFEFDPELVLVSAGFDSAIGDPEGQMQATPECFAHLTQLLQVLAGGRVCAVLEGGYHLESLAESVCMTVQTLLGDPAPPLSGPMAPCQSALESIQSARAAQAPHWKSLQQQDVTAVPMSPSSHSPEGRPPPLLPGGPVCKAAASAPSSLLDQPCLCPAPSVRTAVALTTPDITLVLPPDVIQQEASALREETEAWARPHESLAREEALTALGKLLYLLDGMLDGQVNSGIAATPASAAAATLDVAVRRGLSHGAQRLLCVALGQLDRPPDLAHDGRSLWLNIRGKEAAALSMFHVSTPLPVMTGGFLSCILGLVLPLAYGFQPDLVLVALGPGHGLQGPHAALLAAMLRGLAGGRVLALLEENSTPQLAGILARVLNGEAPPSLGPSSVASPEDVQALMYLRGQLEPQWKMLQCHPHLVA
Histone deacetylase 2, sequence (Q92769 whole entry): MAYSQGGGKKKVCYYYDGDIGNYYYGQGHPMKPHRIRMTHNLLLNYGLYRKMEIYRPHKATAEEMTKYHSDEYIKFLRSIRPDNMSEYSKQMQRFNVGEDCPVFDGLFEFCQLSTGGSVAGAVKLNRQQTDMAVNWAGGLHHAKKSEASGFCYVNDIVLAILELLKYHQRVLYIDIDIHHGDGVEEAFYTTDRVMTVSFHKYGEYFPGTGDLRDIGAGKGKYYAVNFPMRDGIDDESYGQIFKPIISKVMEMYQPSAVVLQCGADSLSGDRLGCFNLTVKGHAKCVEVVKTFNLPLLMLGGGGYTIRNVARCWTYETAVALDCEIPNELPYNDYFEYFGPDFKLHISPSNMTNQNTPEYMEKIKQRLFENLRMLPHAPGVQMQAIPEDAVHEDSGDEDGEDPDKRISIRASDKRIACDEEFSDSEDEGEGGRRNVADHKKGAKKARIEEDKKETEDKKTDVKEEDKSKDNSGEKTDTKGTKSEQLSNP

## CNc1ccc(-c2nc(N3CCOCC3)c3sc(CN(C)c4ncc(C(=O)NO)cn4)cc3n2)cn1
Histone deacetylase 1
  IC50: 0.9 nM
Histone deacetylase 2
  IC50: 0.9 nM
[1]
  IC50: 9.3 nM
Histone deacetylase 3
  IC50: 0.9 nM
[2]
  IC50: 0.9 nM
Histone deacetylase 11
  IC50: 0.9 nM
Daudi
  IC50: 0.3 nM
NCI-H2122
  IC50: 0.3 nM
HCT-116
  IC50: 0.3 nM
TMD8
  IC50: 0.3 nM
Ramos
  IC50: 0.3 nM
K562 [3]
  IC50: 0.3 nM
THP-1
  IC50: 0.3 nM
U-937
  IC50: 0.3 nM
Calu-6
  IC50: 0.3 nM
NCI-H460
  IC50: 0.3 nM
PC-9
  IC50: 0.3 nM
NCI-H1975
  IC50: 0.3 nM
NCI-H358
  IC50: 0.3 nM
COLO 205
  IC50: 0.3 nM
SW-620
  IC50: 0.3 nM
LoVo
  IC50: 0.3 nM
SW480
  IC50: 0.3 nM
MC-38
  IC50: 0.3 nM
[4]
  Cmax: 14500 ng/g
[5]
  AUC: 17157.9 ng·h/g
[6]
  half-life: 7.9 h

## O=C(NO)c1ccc(N2CCN(C(=O)c3cc(-c4ccc(-c5ccccc5)cc4)nc4ccccc34)CC2)cc1
K562 [7]
  IC50: 1080 nM
U-266
  IC50: 1080 nM
